Experimental data reported in patent US20050101595A1, “N-containing cycloalkyl-substituted amino-thiazole derivatives and pharmaceutical compositions for inhibiting cell proliferation and methods for their use” (PFIZER INC., priority 2003, published 2005).
Where a name gives a salt, the structure may show the parent alone. Read-outs that look alike come from different tables or passages of the source.

How the values were obtained:
CDK2/Cyclin A = CDK2/Cyclin A (Homo sapiens, UniProt P24941); assay: Inhibition of CDK2/Cyclin A Retinoblastoma Kinase Activity; type: biochemical; conditions: for CDK2 % Inhibition At 0.03 μM: 0.03 μM compound, Table 2; for Ki: apparent Ki, CDK2/proteolyzed cyclin A, Rb fragment substrate, 25 μM ATP
In short: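 Radiometric filter-binding readout of phosphate transfer to an Rb substrate fragment by purified CDK2/truncated cyclin A at 10 or 19 nM. Run at pH 7.4 with 25 μM ATP, 30 °C, 60–75 min, linear rates; background without enzyme subtracted, Ki from competitive-inhibition models.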

HCT-116 cell line = assay: Inhibition of cell growth, tetrazolium salt (MTT) assay; type: cell-based; conditions: for HCT-116 % Inhibition at 0.1 μM / HCT-116 5 Inhibition at 0.25 μM: HCT-116 cells; for HCT-116 % Inhibition at 0.25 μM: 0.25 μM compound, Table 2; for IC50: Homo sapiens, HCT-116, 120 h, MTT, three to five days, read-out: HCT-116 IC50
In short: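 First, cells were seeded in McCoy's 5A medium and held 4 h. Next, inhibitor concentrations in 0.5% (v/v) DMSO were applied for three to five days at 37° C, 5% CO2. Finally, after 4 h with 0.2 mg/mL MTT and medium removal, solubilized formazan was measured at 540 nm.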

[1] = molecular target: human CDK4 and genetically truncated (1-264) cyclin D3 (Homo sapiens, UniProt P11802); assay: Inhibition of CDK4/Cyclin D Retinoblastoma Kinase Activity; type: biochemical; conditions: for Ki: apparent Ki, CDK4/truncated cyclin D3, Rb fragment substrate, 25 μM ATP
Chain of human CDK4 and genetically truncated (1-264) cyclin D3 (P11802 whole entry, the tested form may be a part): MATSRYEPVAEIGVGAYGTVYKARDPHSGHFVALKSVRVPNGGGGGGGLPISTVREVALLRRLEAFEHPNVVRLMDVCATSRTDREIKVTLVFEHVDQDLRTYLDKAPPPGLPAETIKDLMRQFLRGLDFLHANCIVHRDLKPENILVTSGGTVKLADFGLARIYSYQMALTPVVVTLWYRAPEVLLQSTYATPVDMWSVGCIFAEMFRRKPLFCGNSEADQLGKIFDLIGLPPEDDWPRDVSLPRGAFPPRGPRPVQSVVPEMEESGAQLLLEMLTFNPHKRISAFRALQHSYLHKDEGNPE
Chain of human CDK4 and genetically truncated (1-264) cyclin D3 (P30281 1-264 partner): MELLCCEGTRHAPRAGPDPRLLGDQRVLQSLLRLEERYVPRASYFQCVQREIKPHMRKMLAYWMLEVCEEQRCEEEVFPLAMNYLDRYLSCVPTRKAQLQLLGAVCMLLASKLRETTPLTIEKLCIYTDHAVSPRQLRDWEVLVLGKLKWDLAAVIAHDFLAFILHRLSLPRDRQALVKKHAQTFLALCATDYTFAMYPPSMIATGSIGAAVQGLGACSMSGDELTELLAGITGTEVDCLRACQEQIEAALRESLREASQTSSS
In short: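 Apparent Ki values come from competitive or competitive tight-binding inhibition fits of background-corrected 32P/33P incorporation into His-tagged Rb fragment (386-928), captured on nitrocellulose. Reaction: 5 nM insect-cell-expressed human CDK4 with cyclin D3 (1-264), 25 μM ATP, pH 7.4 HEPES, 2% DMSO, 30° C., 20 min, extended to 60 min for tight-binding inhibitors.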

Structure (SMILES)	CDK2 % Inhibition at 0.03 μM (CDK2/Cyclin A) [%]	HCT-116 % Inhibition at 0.1 μM (HCT-116 cell line) [%]	HCT-116 5 Inhibition at 0.25 μM (HCT-116 cell line)	CDK4 % Inhibition at 0.03 μM ([1]; at 0.03 μM) [%]	CDK2 % Inhibition At 0.03 μM (CDK2/Cyclin A) [%]	HCT-116 % Inhibition at 0.25 μM (HCT-116 cell line) [%]	CDK4 % Inhibition at 0.03 μM ([1]; 0.03 μM compound, Table 2) [%]	further results
CCCc1c(C(=O)N2CCC(Nc3nc(N)c(C(=O)c4c(F)cccc4F)s3)CC2)cnn1-c1ccccc1 [Example R71]	33	0	44	51	–	–	–	–
CCOC(=O)c1cccc(NC(=O)N2CCC(Nc3nc(N)c(C(=O)c4c(F)cccc4F)s3)CC2)c1 [Example O46]	–	–	–	–	29	41	15	–
Nc1nc(NC2CCN(C(=O)Nc3ccccc3Br)CC2)sc1C(=O)c1c(F)cccc1F [Example O4]	–	–	–	–	27	4	10	–
Nc1nc(NC2CCN(S(=O)(=O)c3ccc(-c4cccnc4)cc3)CC2)sc1C(=O)c1c(F)cccc1F [Example I8, 1-{4-Amino-2-[1-(4-pyridin-3-yl-benzenesulfonyl)-piperidin-4-ylamino]-thiazol-5-yl}-1-(2,6-difluoro-phenyl)-methanone Trifluoroacetic Acid Salt]	–	–	–	–	–	–	–	Ki (CDK2/Cyclin A): 0.3 nM; IC50 (HCT-116 cell line; first HCT-116 column (c4)): 71 nM; IC50 (HCT-116 cell line; second HCT-116 column (c5)): 500 nM; Ki [1]: 0.48 nM
Nc1nc(NC2CCN(C(=O)C(=O)c3c[nH]c4ccccc34)CC2)sc1C(=O)c1c(F)cccc1F [Example R5]	−31	13	49	9	–	–	–	–
CC(C)=CCCC(C)CC(=O)N1CCC(Nc2nc(N)c(C(=O)c3c(F)cccc3F)s2)CC1 (centres unmarked) [Example R170]	21	0	23	22	–	–	–	–
Nc1nc(NC2CCN(C(=O)Nc3ccc(F)cc3)CC2)sc1C(=O)c1c(F)cccc1F [Example O19]	–	–	–	–	31	7	9	–
Nc1nc(NC2CCN(C(=O)c3ccc(Cl)cc3Cl)CC2)sc1C(=O)c1c(F)cccc1F [Example R107]	44	8	48	63	–	–	–	–
Nc1nc(NC2CCN(S(=O)(=O)CCCN3CCC4CCCCC4C3)CC2)sc1C(=O)c1c(F)cccc1F (mixture of isomers) [Example K10, 1-(4-Amino-2-{1-[3-([cis/trans]-octahydro-1H-isoquinolin-2-yl)propane-1-sulfonyl]-piperidin-4-ylamino}-thiazol-5-yl)-1-(2,6-difluoro-phenyl)-methanone.]	–	–	–	–	–	–	–	Ki (CDK2/Cyclin A): 2.6 nM; IC50 (HCT-116 cell line; first HCT-116 column (c4)): 190 nM; IC50 (HCT-116 cell line; second HCT-116 column (c5)): 1300 nM; Ki [1]: 1.1 nM
Nc1nc(NC2CCN(C(=O)c3cc(C(F)(F)F)ccc3C(F)(F)F)CC2)sc1C(=O)c1c(F)cccc1F [Example R55]	11	5	51	37	–	–	–	–
CCOC(=O)C(C)NC(=O)N1CCC(Nc2nc(N)c(C(=O)c3c(F)cccc3F)s2)CC1 (centres unmarked) [Example O72]	–	–	–	–	24	62	11	–
CCc1ccc(C(=O)N2CCC(Nc3nc(N)c(C(=O)c4c(F)cccc4F)s3)CC2)cc1 [Example R157]	22	0	42	47	–	–	–	–
